Active and inactive are the calls of the source. The rule behind the calls is not given here.
Columns and labels:
[1] = Solubility of the compound; assay type: physicochemical
SH-SY5Y [2] = assay: Neuroprotective activity against serum starvation-induced cell death in human SH-SY5Y cells assessed as increase in cell viability at 10 and 20 uM after 3 days by tetrazolium reduction assay; assay type: functional, cell-based
SH-SY5Y [3] = assay: Neuroprotective activity against serum starvation-induced cell death in human SH-SY5Y cells assessed as increase in cell viability at 20 and 40 uM after 3 days by tetrazolium reduction assay; assay type: functional, cell-based
SH-SY5Y [4] = assay: Neuroprotective activity against serum starvation-induced cell death in human SH-SY5Y cells assessed as increase in cell […] at 20 and 40 uM after 3 days by tetrazolium reduction assay; assay type: functional, cell-based

Row | solubility [1] | solubility ([1]; read-out: solubility) [µM] | Compound | Activity (SH-SY5Y [2]) | Activity (SH-SY5Y [3]) | Activity (SH-SY5Y [4])
1 | Insoluble |  | COC(=O)c1cn(-c2ccc3nc(N4CCOCC4)sc3c2)nn1 | inactive |  | 
2 | Insoluble |  | c1ccc(-c2cn(-c3ccc4nc(N5CCOCC5)sc4c3)nn2)cc1 | inactive |  | 
3 |  | > 40 | CC(C)n1c(=O)c2ccccc2n1Cc1cn(-c2ccc3nc(N4CCOCC4)sc3c2)nn1 |  | Active | Active
